Measurements reported in patent US7144862B2, “Orally administered peptides to ameliorate atherosclerosis” (The Regents of the University of California, priority 2000, dated 2006).
Values joined by “and” are separate entries in the source; they are usually repeats but may differ in a detail not shown here. Equal values may be shown once.

What was measured:
[1] = test system: mice infected with Influenza A virus; assay type: in vivo, mouse; conditions: 20 micrograms daily injected after infection
[2] = test system: LDL receptor null mice on a Western diet; test: Aortic root lesions, oral gavage twice daily for 6 weeks; assay type: in vivo, mouse; conditions: oral gavage twice daily for 6 weeks (2.5 mg in liposomes)
Procedure: Groups of LDL receptor null mice were placed on a Western diet and were given by oral gavage, 100 μl of saline alone (Saline), n=4 animals, or 100 μl of liposomes without D-4F (Liposomes), n=5 animals, or 2.5 mg D-4F peptide in 100 μl liposomes (D-4F in liposomes), n=6 animals, twice daily for 6 weeks. The mice were bled, and subsequently sacrificed, aortic root fixed, sectioned and the extent of Oil Red O staining in fatty streak lesions quantified.
Female LDL receptor null or apo E null mice on a C57BL/6J background were purchased from the Jackson Laboratory, Bar Harbor, Me. The LDL receptor null mice were maintained on Purina chow diet (Ralston Purina Co.) until they were 4 weeks old when they were switched to a Western diet (Teklad, Madison, Wis., diet # 88137) for 6 weeks. The apo E null mice were maintained on Purina chow diet throughout the study LDL receptor null mice received the test peptide or a vehicle control by gastric gavage twice daily for the periods indicated in the figure legends. […]
Mice were bled under anesthesia from the retro-orbital venous plexus, in accordance with protocols approved by the UCLA Animal Research Committee. Atherosclerotic lesions were measured as previously described^9.

[3] = test system: human artery wall cell cocultures; test: Lipoproteins from mice given peptide by gavage tested in human artery wall cell cocultures (monocyte chemotactic activity); conditions: 4F, 100 μg by oral gavage, LDL receptor deficient mice, blood after 6 hrs
Procedure: Groups of LDL receptor-deficient mice (n=3) were administered the D-peptides or the saline vehicle by gavage. […] Blood was collected from retroorbital sinus under mild anesthesia 17 hrs later. LDL was isolated from plasma by FPLC. Cocultures of artery wall cells were incubated with medium alone (NO ADDITION), control LDL from normal subjects (LDL), LDL plus control HDL from normal subjects (+HDL). […] The cocultures were incubated for 4 hrs at 37° C. in the presence of 10% LPDS. The supernatants were then discarded, the cocultures were washed and incubated with culture medium without serum or LPDS for an additional 4 hrs. This conditioned medium was collected and analyzed for monocyte chemotactic activity. The values are mean±SD of quadruplicate cocultures.
Blood was collect after 6 hrs, plasma HDL and LDL were isolated by gel filtration (FPLC) and examined in the cocultures. […] Human LDL at 200 μg protein/ml was added to human artery wall cell cocultures together with human HDL (hHDL) at 350 μg protein/ml or mouse HDL (mHDL) at 100 μg cholesterol/ml taken from mice that received saline (Saline Rx) or L-4F (L-4F Rx) or D-4F (D-4F Rx) and monocyte chemotactic activity was determined as described herein. […] On the right, mouse LDL (mLDL) was isolated from mice receiving saline (Saline Rx) or L-4F (L4F Rx) or D-4F (D-4F Rx) and was added at 100 μg cholesterol/ml to the artery wall cell cocultures without HDL and monocyte chemotactic activity determined. Values are mean±SD) for four wells in two independent experiments.
Either saline or 2F synthesized from D amino acids or from L amino acids was instilled in the stomachs of mice by gavage (instillation in the stomach by tube). After gavage the mice were bled and their LDL isolated and added to the human artery wall cell cocultures.
The animals were bled 1.5, 3 or 6 hours later and their HDL, LDL, and VLDL/IDL isolated.
Human aortic endothelial and smooth muscle cells were isolated and cultured as previously described (Id.). Cellular oxidation of LDL in the presence and absence of HDL was determined as described (Id.). Human blood monocytes were isolated after obtaining informed consent and monocyte chemotaxis was determined as described previously^5.

[4] = Plasma total and HDL cholesterol after oral D-4F; assay type: in vivo, mouse; conditions: for Mean HDL-cholesterol / plasma total cholesterol concentration: apo E null mice
Procedure: Protein (Navab et al. (2000) J Lipid Res. 41: 1481–1494) and cholesterol (Van Lenten et al. (2001) Circulation, 103: 2283–2288) content of lipoproteins and statistical analyses were performed as described by Van Lenten et al. (2001) Circulation, 103: 2283–2288, with significance defined as P<0.05.

Solubility in PBS = assay type: physicochemical; conditions: in PBS
Procedure: The peptides were purified on a preparative Vydac C4 column by reversed-phase (RP)-HPLC using water (with 0.1% trifluoroacetic acid) and acetonitrile (0.1% trifluoroacetic acid). The purity and the retention times of the peptides were determined on an analytical Vydac C18 column using a gradient of 25%-58% acetonitrile in water containing 0.1% TFA. The purity of these peptides was also confirmed by mass spectrometry. The mass was in agreement with the calculated molecular weight. Although both the 3F peptides and 4F have additional Phe residues compared to 2F, the retention times of these peptides on the C18 column are not very different (˜22 min). A sudden increase in the retention time is apparent with 5F, 6F and 7F (˜26 min). With increasing number of Phe residues, the solubility of these peptides in PBS decreases.

[5] = Non-denaturing PAGE, self-association; assay type: physicochemical; conditions: 100 and 250 μg/ml
Procedure: Non-denaturing and SDS-PAGE and was carried out using the method of Laemmli (1970) Nature 227: 680–685. Premade Novex gels were used and the gel was stained with Coomassie blue to identify the protein bands.

[6] = test system: human artery wall cell cocultures; test: LDL-induced monocyte chemotactic activity with the homologous series of peptides (Example 3); assay type: cell-based; conditions: peptide at 100 μg/ml, LDL 250 μg protein/ml, 8 h
Procedure: Microtitre plates were treated with 0.1% gelatin at 37° C. overnight. HASMC were added at a confluent density of 1×10^5 cells/cm^2. […] HAEC were subsequently added at 2×10^5 cells/cm^2 and were allowed to grow, forming a complete monolayer of confluent HAEC in two days. In all experiments, HAEC and autologous HASMC (from the same donor) were used at passage levels of four to six. […] The cocultures were treated with native LDL(250 μg protein/ml) or presence of HDL (350 μg protein/ml) or peptides for 8 h.

[7] = Surface pressure measurements: monolayer exclusion pressure; assay type: physicochemical; conditions: EPC monolayer; reproducibility ± 1 dyn/cm
Procedure: An insoluble monolayer of egg phosphatidylcholine (EPC) was spread at the air-water interface in a Teflon dish at room temperature to give an initial surface pressure (πi) in the range of 5–45 dyn/cm. A solution of peptides in PBS containing 1.5M Gdn. HCl was carefully injected in to the subphase to give a final concentration of 50 μg/dL. The Gdn. HCl was diluted in the subphase to a final concentration of ≦1 mM to allow the peptides to renature. The subphase was stirred continuously and the increase in EPC monolayer surface pressure (Δπ) was recorded until a steady state value was obtained. The value of the initial surface pressure (πi) at which the peptides no longer penetrate the EYPC monolayer i.e. the exclusion pressure (πe), was calculated by extrapolating the πi vs Δπ linear regression fit to Δπ=0 dyn/cm.

[8] = DSC, chain melting transition of DMPC; assay type: physicochemical; conditions: DMPC/peptide 100:1 (mol/mol)
Procedure: (§1) A known amount of phospholipid was dissolved in chloroform. For one set of samples, peptide was dissolved in methanol and added to a solution of DiPoPE in chloroforn/methanol (2:1, v:v). For both, pure lipid samples and the organic solutions of lipid and peptide, solvent was removed under a slow stream of nitrogen. Residual solvent was removed under vacuum. […] For DMPC, four consecutive scans with a 60 minute equilibration time between scans were taken. DSC thermograms were analyzed using the software provided by MicroCal Inc., Amherst, Mass., and Origin, version 5.0.
The effect of these 18A analogues on the chain melting transition of multilamellar vesicles of DMPC was studied by DSC using peptide-lipid mixtures at 100:1 lipid/peptide molar ratio.

[9] = DSC, bilayer to hexagonal phase transition of DiPoPE; assay type: physicochemical; conditions: heating scan rate 37°/h
Procedure: as §1
In the current study we prepared the peptide-lipid mixtures in two ways. One was by adding the peptide in organic solvent to the lipid in organic solvent followed by depositing the material as a film and subsequently hydrating with buffer. In the other method, the peptide and lipid were mixed after each was hydrated separately. If the mixture comes to equilibrium prior to the DSC analysis, it should not matter how the peptide and lipid are originally mixed. However, membrane systems can equilibrate slowly, in which case there may be more peptide in the lipid when it was incorporated at high concentrations into the lipid film.

C57 BL6 mice = test: Diet-induced lesion formation with 2F; assay type: in vivo, mouse
Description: It follows that in this mouse model, inhibition of LDL-induced monocyte chemotaxis is more anti-atherogenic than LCAT activation. Since the peptides 2F and 4F are similar in activating LCAT, and 4F and 5F are similar in removing “seeding molecules” from LDL, the peptide 4F may serve as a reagent to distinguish between the importance of LCAT activation and the inhibition of LDL-induced monocyte chemotaxis in different atherosclerosis-sensitive mouse models. If the inhibition of LDL-induced chemotaxis is more important than the LCAT-activating ability, then 4F should be better peptide to use as an inhibitor of atherosclerosis since this peptide is more soluble than the peptides 5F, 6F and 7F.

[10] = Circular dichroism, percent helicity; assay type: physicochemical
Procedure: Briefly, spectra were obtained using a cell with a 0.1 cm path length and measurements were taken every nm from 260 nm to 190 nm at 25° C. All the CD spectra were signal averaged by adding four scans, base line corrected and smoothed. Peptide solutions in PBS, pH 7.4, were used at a concentration of 11 μM. Peptide-DMPC complexes (1:20 mol:mol) were used to determine the effect of lipid binding on the helicity of these peptides. These complexes were prepared by adding the appropriate volume of peptide solution to DMPC multilamellar vesicles. DMPC multilamellar vesicles were prepared as follows: A known amount of lipid was dissolved in ethanol and the solvent was removed by evaporating slowly under a thin stream of nitrogen. Residual solvent was removed by storing the lipid film under vacuum overnight. An appropriate volume of PBS, pH 7.4 was added to the thin lipid film to give the required final concentration of DMPC.

[11] = Right angle light scattering, dissolution of EPC MLVs; assay type: physicochemical; conditions: 105 μM EPC, equimolar peptide, 25° C., 30 min
Procedure: EPC MLVs were prepared by evaporating a solution of EPC (Avanti Polar, AL) under nitrogen and hydrating the lipid film with phosphate-buffered saline (pH 7.4). […] Turbidity clarification was monitored for 30 min.

[12] = LDL receptor null mice, Western diet, gavage twice daily 6 weeks
[13] = 2.5 mg/mouse/day in drinking water
[14] = 5.0 mg/mouse/day in drinking water

CC(=O)N[C@H](CC(=O)O)C(=O)N[C@H](Cc1c[nH]c2ccccc12)C(=O)N[C@H](Cc1ccccc1)C(=O)N[C@H](CCCCN)C(=O)N[C@H](C)C(=O)N[C@H](Cc1ccccc1)C(=O)N[C@H](Cc1ccc(O)cc1)C(=O)N[C@H](CC(=O)O)C(=O)N[C@H](CCCCN)C(=O)N[C@@H](C(=O)N[C@H](C)C(=O)N[C@H](CCC(=O)O)C(=O)N[C@H](CCCCN)C(=O)N[C@H](Cc1ccccc1)C(=O)N[C@H](CCCCN)C(=O)N[C@H](CCC(=O)O)C(=O)N[C@H](C)C(=O)N[C@H](Cc1ccccc1)C(N)=O)C(C)C [Peptide D-4F, Ac-D-W-F-K-A-F-Y-D-K-V-A-E-K-F-K-E-A-F-NH2]
biologically active oxidized phospholipids in the aorta after influenza A infection [1]: not generated beyond background | plasma paraoxonase levels after influenza A infection [1]: did not fall | reduction in atherosclerotic lesions [2]: 79% and 81% | HDL protective capacity [3]: enhance HDL protective capacity | LDL-induced monocyte chemotactic activity (mouse LDL) [3]: decrease LDL-induced monocyte chemotactic activity | Total cholesterol [4, 12]: 761 ± 69 mg/dL | mean HDL-cholesterol level [4, 12]: 73 ± 8.7 mg/dL | Mean HDL-cholesterol [4, 13]: 38.7 ± 5 mg/dL | plasma total cholesterol concentration [4, 13]: 534 ± 12.3 mg/dL | Mean HDL-cholesterol [4, 14]: 43.4 ± 6 mg/dL | plasma total cholesterol concentration [4, 14]: 579 ± 4.6 mg/dL

Ac-DWLKAFYDKVAEKLKEAF-NH2 [Peptide 2F, Ac-D-W-L-K-A-F-Y-D-K-V-A-E-K-L-K-E-A-F-NH2]
Solubility (Solubility in PBS): >2000 µg/mL | solubility (Solubility in PBS; read-out: Solubility): 1250 to 1400 µg/mL | self-association on non-denaturing PAGE [5]: forms aggregates in a concentration dependent manner | inhibition of LDL-induced monocyte chemotaxis [6]: some inhibitory activity | Monolayer Exclusion Pressure(πc) [7]: 38 dyn/cm | TCM(° C.) ([8]; 1.5 mM DMPC, chain melting transition temperature): 23.2 °C | ΔHCM (kcals/mol) ([8]; enthalpy of the transition): 4.5 kcals/mol | ΔT1/2 (° C.) ([8]; width at half maximum of the transition): 0.5 °C | shift in TH of DiPoPE with mol fraction of peptide [9]: linear increase in TH | mean lesion area (C57 BL6 mice; 2F-administered mice, n=15, PBS control 14.7±1.8): 13.2±1.7 μm^2×10^−3 | inhibition of diet-induced lesion formation (C57 BL6 mice; C57 BL6 mice): did not significantly inhibit diet-induced lesion formation | Percent Helicity PBS ([10]; 11 μM peptide in PBS): 55% | Percent Helicity DMPC ([10]; 11 μM peptide, Peptide: DMPC 1:20 (mol/mol)): 72% | clarification of EPC MLVs [11]: clarified the EPC MLVs to a similar extents
